Source: patent publication US20250163066A1, “PROTACs of MALT1” (TEGID THERAPEUTICS, INC., priority 2022, published 2025)

molecular target: MALT1 (Homo sapiens (Human), UniProt Q9UDY8); experiment: MALT1 enzymatic activity inhibition (fluorescence, Ac-LRSR-AMC substrate); format: biochemical; details: recombinant MALT1 1.5 ng/μl, Ac-LRSR-AMC 1 μM
Procedure, shortened: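 Recombinant human MALT1 (1.5 ng/μl final) preincubated 10 min at rt with compounds in 50 mM HEPES pH 7.2-7.4, 100 mM NaCl, 900 mM sodium citrate, 10 mM DTT; 1 μM Ac-LRSR-AMC then added. AMC fluorescence read at start and after 30 min 37 °C plus 30 min rt; difference gives signal, % inhibition fitted to IC50.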

Chain of MALT1 (Q9UDY8 whole entry): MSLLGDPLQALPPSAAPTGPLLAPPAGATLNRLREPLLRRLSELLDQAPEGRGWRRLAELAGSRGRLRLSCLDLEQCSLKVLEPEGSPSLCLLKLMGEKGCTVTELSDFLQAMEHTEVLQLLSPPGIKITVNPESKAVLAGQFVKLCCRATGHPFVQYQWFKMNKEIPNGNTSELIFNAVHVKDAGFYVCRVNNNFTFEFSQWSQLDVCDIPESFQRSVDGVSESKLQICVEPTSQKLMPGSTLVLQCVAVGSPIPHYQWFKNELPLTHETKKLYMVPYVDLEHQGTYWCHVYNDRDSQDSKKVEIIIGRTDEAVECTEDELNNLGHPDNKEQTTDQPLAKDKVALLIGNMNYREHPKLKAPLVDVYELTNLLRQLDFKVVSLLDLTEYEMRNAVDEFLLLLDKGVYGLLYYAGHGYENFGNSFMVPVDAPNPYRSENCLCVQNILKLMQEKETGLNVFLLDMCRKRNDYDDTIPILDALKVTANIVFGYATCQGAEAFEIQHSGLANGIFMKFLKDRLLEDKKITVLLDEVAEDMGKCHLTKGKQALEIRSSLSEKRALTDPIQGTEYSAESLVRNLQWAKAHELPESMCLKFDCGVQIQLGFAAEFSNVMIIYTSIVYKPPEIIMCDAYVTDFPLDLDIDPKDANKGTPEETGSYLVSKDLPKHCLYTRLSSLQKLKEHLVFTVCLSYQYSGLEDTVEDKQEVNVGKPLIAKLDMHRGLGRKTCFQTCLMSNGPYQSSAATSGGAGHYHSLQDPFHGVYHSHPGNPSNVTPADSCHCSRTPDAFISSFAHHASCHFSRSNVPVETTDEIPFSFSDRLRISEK

EC50 [µM] | Structure (SMILES)
≤ 0.2 | O=C1CCC(N2Cc3cc(N4CCN(CCCCCCc5nc(-c6ncc(NC(=O)Nc7cnc8ccnn8c7C7CCCC7)cc6F)no5)CC4)ccc3C2=O)C(=O)N1 (centres unmarked) [Compound 95, 1-(7-cyclopentylpyrazolo[1,5-a]pyrimidin-6-yl)-3-[6-[5-[6-[4-[2-(2,6-dioxo-3-piperidyl)-1-oxo-isoindolin-5-yl]piperazin-1-yl]hexyl]-1,2,4-oxadiazol-3-yl]-5-fluoro-3-pyridyl]urea]
≤ 0.2 | O=C1CCC(N2Cc3cc(N4CCN(CCCCCc5nc(-c6ncc(NC(=O)Nc7cnc8ccnn8c7C7CCCC7)cc6F)no5)CC4)ccc3C2=O)C(=O)N1 (centres unmarked) [Compound 97, 1-(7-cyclopentylpyrazolo[1,5-a]pyrimidin-6-yl)-3-[6-[5-[5-[4-[2-(2,6-dioxo-3-piperidyl)-1-oxo-isoindolin-5-yl]piperazin-1-yl]pentyl]-1,2,4-oxadiazol-3-yl]-5-fluoro-3-pyridyl]urea]
≤ 0.2 | O=C1CCC(N2Cc3cc(N4CCN(C(=O)CCCCc5nc(-c6ncc(NC(=O)Nc7cnc8ccnn8c7C7CCCCC7)cc6Cl)no5)CC4)ccc3C2=O)C(=O)N1 (centres unmarked) [Compound 98, 1-[5-chloro-6-[5-[5-[4-[2-(2,6-dioxo-3-piperidyl)-1-oxo-isoindolin-5-yl]piperazin-1-yl]-5-oxo-pentyl]-1,2,4-oxadiazol-3-yl]-3-pyridyl]-3-(7-cyclohexylpyrazolo[1,5-a]pyrimidin-6-yl)urea]
≤ 0.2 | O=C1CCC(N2Cc3cc(N4CCN(CCCCCc5nc(-c6ncc(NC(=O)Nc7cnc8ccnn8c7C7CCCCC7)cc6Cl)no5)CC4)ccc3C2=O)C(=O)N1 (centres unmarked) [Compound 99, 1-[5-chloro-6-[5-[5-[4-[2-(2,6-dioxo-3-piperidyl)-1-oxo-isoindolin-5-yl]piperazin-1-yl]pentyl]-1,2,4-oxadiazol-3-yl]-3-pyridyl]-3-(7-cyclohexylpyrazolo[1,5-a]pyrimidin-6-yl)urea]
0.2 to 0.5 | Cc1cc(NC(=O)Nc2cnc3ccnn3c2C2CCCC2)cnc1-c1noc(CCCCC(=O)Nc2cccc(C3CCC(=O)NC3=O)c2)n1 (centres unmarked) [Compound 100, 5-[3-[5-[(7-cyclopentylpyrazolo[1,5-a]pyrimidin-6-yl)carbamoylamino]-3-methyl-2-pyridyl]-1,2,4-oxadiazol-5-yl]-N-[3-(2,6-dioxo-3-piperidyl)phenyl]pentanamide]

More lines, now with the values behind:

Structure (SMILES) | EC50 [µM]
Cc1cc2ncc(NC(=O)Nc3cnc(-c4noc(CCCCCCN5CCN(c6ccc7c(c6)CN(C6CCC(=O)NC6=O)C7=O)CC5)n4)c(C)c3)c(C3CCCC3)n2n1 (centres unmarked) [Compound 83, 1-(7-cyclopentyl-2-methyl-pyrazolo[1,5-a]pyrimidin-6-yl)-3-[6-[5-[6-[4-[2-(2,6-dioxo-3-piperidyl)-1-oxo-isoindolin-5-yl]piperazin-1-yl]hexyl]-1,2,4-oxadiazol-3-yl]-5-methyl-3-pyridyl]urea] | ≤ 0.2
Cc1cc2ncc(NC(=O)Nc3cnc(-c4noc(CCCCCN5CCN(c6ccc7c(c6)CN(C6CCC(=O)NC6=O)C7=O)CC5)n4)c(C)c3)c(C3CCCO3)n2n1 (centres unmarked) [Compound 85, 1-[6-[5-[5-[4-[2-(2,6-dioxo-3-piperidyl)-1-oxo-isoindolin-5-yl]piperazin-1-yl]pentyl]-1,2,4-oxadiazol-3-yl]-5-methyl-3-pyridyl]-3-(2-methyl-7-tetrahydrofuran-2-yl-pyrazolo[1,5-a]pyrimidin-6-yl)urea] | ≤ 0.2
Cc1cc(-c2noc(CCCCC(=O)N3CCN(c4ccc5c(c4)CN(C4CCC(=O)NC4=O)C5=O)CC3)n2)ncc1NC(=O)Nc1cnc2ccnn2c1C1CCCC1 (centres unmarked) [Compound 94, 1-(7-cyclopentylpyrazolo[1,5-a]pyrimidin-6-yl)-3-[6-[5-[5-[4-[2-(2,6-dioxo-3-piperidyl)-1-oxo-isoindolin-5-yl]piperazin-1-yl]-5-oxo-pentyl]-1,2,4-oxadiazol-3-yl]-4-methyl-3-pyridyl]urea] | > 5
